Article PMC7450938, “Prenatal to early postnatal neurotrophic treatment prevents Alzheimer-like behavior and pathology in mice” (Alzheimer's Research & Therapy, 2020)

Key:
[1] = tested on: PSD95, synapsin, synaptophysin, MAP2; experiment: Western blots of dendritic and synaptic markers in hippocampus; type: in vivo, mouse; conditions: 3xTg-AD mice
Description: (§1) We treated 2- to 3-month-old pregnant 3xTg-AD and WT mothers with compound P021 in mouse chow, or with vehicle feed as control at E8 until their offspring/pups reached PND21, at which point the offspring were separated and put on standard mouse chow (Fig. 1). Treatment was administered as 60 nmol peptide/g formulated diet (Research Diets; New Brunswick, NJ, USA). The vehicle-treated control animals received the same diet but without the peptide. On average, each mouse consumed ~ 2.7 g diet/day.
(§2) The tissue from the left cerebral hemisphere from each mouse stored at− 80 °C was homogenized in a Teflon-glass homogenizer to generate 10% (w/v) homogenate. The pre-chilled homogenization buffer contained 50 mM Tris–HCl (pH 7.4), 8.5% sucrose, 2 mM EDTA, 2 mM EGTA, 10 mM β-mercaptoethanol plus the following protease and phosphatase inhibitors: 0.5 mM AEBSF, 10 μg/mL aprotinin, 10 μg/mL leupeptin, 4 μg/mL pepstatin, 5 mM benzamidine, 20 mM β-glycerophosphate, 50 mM sodium fluoride, 1 mM sodium orthovanadate, and 100 nM okadaic acid. Each homogenate was boiled in 2× Laemmli sample buffer for 5 min, and protein concentration was measured by PierceTM 660-nm protein assay (Thermo Scientific; Rockford, IL, USA).
(§3) The samples were subjected to 10% SDS-PAGE and electro-transferred onto Immobilon-P membranes (EMD Millipore; Billerica, MA, USA). The blots were then probed with primary antibodies (Table 1) and developed with the corresponding HRP-conjugated secondary antibody and enhanced chemiluminescence (Pierce Biotechnology, Rockford, IL, USA). Densitometric quantification of protein bands in Western blots was analyzed using Multi Gauge version 3.0 software (FUJIFILM North America; Valhalla, NY, USA).

tau = experiment: Western blots of total and hyperphosphorylated tau in hippocampus; type: in vivo, mouse
Description: as §1
The animals were anesthetized with an overdose of sodium pentobarbital (125 mg/kg) and transcardially perfused with 0.1 M phosphate-buffered saline (PBS). After perfusion, the brains were removed from the skull immediately. The left hemisphere was dissected into hippocampus, cerebral cortex, cerebellum, and brain stem; immediately frozen on dry ice; and then stored at − 80 °C for biochemical analysis.
as §2, §3

Aβ plaques = experiment: Aβ immunofluorescence, amyloid plaques in brain sections; type: in vivo, mouse; conditions: 22-month-old 3xTg-AD mice, P021 diet E8-PND21
Description: as §1
The complete right hemisphere was immersion-fixed in 4% paraformaldehyde in 0.1 M PBS for 24–48 h, followed by cryoprotection in a 30% sucrose solution at 4 °C overnight. Later, the 40-μm-thick sagittal sections were cut on a freezing microtome. […]
Immunofluorescence staining was performed on free-floating sections, and every 12th brain section was chosen for densitometry and quantification. For immunohistochemical quantification, six brain sections of four animals per group were analyzed. All stainings for fluorescence-intensity quantification were carried out under identical conditions, including all tissue samples for a particular staining processed at the same time, and experimental and control sections photographed under identical settings. […]

[2] = cited from earlier work
Excerpt: A central objective of the field of dementia research is to inhibit, or to at least effectively modify, the course of AD, but at present, no effective treatment or cure for AD is available. CNTF is a pluripotent neurotrophic factor that has a potent effect on the development and maintenance of the nervous system, inducing neuronal survival and differentiation by stimulating gene expression of sensory, sympathetic, and motor neurons. However, the clinical therapeutic usage of recombinant neurotrophic factors is limited because of the insurmountable hurdles of unfavorable pharmacokinetic ...

[3] = tested on: NR1, NR2A, NR2B, GluR1, GluR2&3, p-CREB; experiment: Western blots of glutamate receptors and CREB in hippocampus; type: in vivo, mouse
Description: as §1, §2, §3

[4] = 4 months, P021 diet E8-PND21, n = 3-4/group
[5] = 4-month-old 3xTg-AD mice, P021 diet E8-PND21, vs 3xTg-Vh, n = 4
[6] = 22-month-old 3xTg-AD mice, P021 diet E8-PND21
[7] = 22-month-old 3xTg-AD mice, P021 diet E8-PND21, vs 3xTg-Vh, n = 4
[8] = 4 months, 3xTg-AD mice, P021 diet E8-PND21, n = 3-4/group
[9] = 22 months, 3xTg-AD mice, P021 diet E8-PND21, n = 3-4/group

## Ac-DGGL^AG-NH2 [P021, 4-mer CNTF small molecule peptide mimetic to which adamantylated glycine was added at the C-terminal]
[1]; [4]
  MAP2 deficit: only the PSD 95 deficit was rescued
  PSD95 deficit: rescued
  synapsin deficit: only the PSD 95 deficit was rescued
  synaptophysin deficit: only the PSD 95 deficit was rescued
[1]; 22 months, P021 diet E8-PND21, not significant
  levels of PSD95, synapsin, synaptophysin, and MAP2: a trend for an increase
tau; [5]
  human-specific tau (antibody 43D): decreased
  tau hyperphosphorylation at Ser202/Thr205 (antibody AT8): decrease
  total tau (antibody R134d): decreased
tau; [6]
  human tau (antibody 43D): did not change significantly
  hyperphosphorylated tau (antibody pT212): did not change significantly
tau; [7]
  tau hyperphosphorylation at Ser202/Thr205 (antibody AT8): decreased
  tau hyperphosphorylation at Ser-396/404 (antibody PHF-1): decreased
  total tau (antibody R134d): only an insignificant decrease
Aβ plaques; one half of the brain, 6 sections per mouse, n = 4 mice
  plaque-occupied area (Aβ immunofluorescence): significantly decreased
Aβ plaques; subiculum, piriform cortex, forebrain and hippocampus, vs 3xTg-Vh
  amyloid plaques detected by Aβ antibody: markedly reduced
[2]
  BBB permeability: BBB-permeable
  solubility in water: water-soluble
  systemic adverse effects: does not induce the systemic adverse effects associated with recombinant CNTF or BDNF
[2]; oral administration
  pharmacokinetic properties: suitable pharmacokinetic properties for oral administration
[3]; [8]
  level of GluR1: increased
  level of NR1: increased
  level of NR2A: increased
  level of phosphorylated CREB (p-CREB): increased
[3]; 4 months, among groups
  level of GluR2&3: no significant changes
  level of NR2B: no significant changes
[3]; [9]
  level of NR1: increased
  level of NR2A: increased
  level of p-CREB: increased
[3]; 22 months, among groups
  level of GluR1: no significant changes
  level of GluR2 and 3: no significant changes
  level of NR2B: no significant changes
